What all share (format): biochemical
In one assay the target is GST-tagged SIK1 (Homo sapiens (Human), UniProt P57059). In words: SIK1 inhibition test (ADP-Glo Max Assay). The settings on record: enzyme 20 nM, AMARA Peptide 200 μM, ATP 1 mM, 2 hours room temperature. The essentials:
(§1)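 ADP formed was detected by luciferase luminescence after a 2 h room-temperature reaction with 1 mM ATP, 5 mM MgCl2 and AMARA peptide at 200 μM (SIK1, SIK2) or 100 μM (SIK3). Final GST-enzyme levels were 20 nM SIK1, 3 nM SIK2 and 100 nM SIK3. IC50 came from 16-point concentration-response data.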
(ADP-Glo first removes unused ATP, then detects ADP through luciferase.)

A further assay deals with GST-tagged SIK3 (Homo sapiens (Human), UniProt Q9Y2K2). In words: SIK3 inhibition test (ADP-Glo Max Assay). The note with it: enzyme 100 nM, AMARA Peptide 100 μM, ATP 1 mM, 2 hours room temperature. The essentials:
as §1

In the next assay the target is GST-tagged SIK2 (Homo sapiens (Human), UniProt Q9H0K1). In words: SIK2 inhibition test (ADP-Glo Max Assay). The settings on record: enzyme 3 nM, AMARA Peptide 200 μM, ATP 1 mM, 2 hours room temperature. The essentials: as §1
GST-tagged SIK2, sequence (Q9H0K1 whole entry): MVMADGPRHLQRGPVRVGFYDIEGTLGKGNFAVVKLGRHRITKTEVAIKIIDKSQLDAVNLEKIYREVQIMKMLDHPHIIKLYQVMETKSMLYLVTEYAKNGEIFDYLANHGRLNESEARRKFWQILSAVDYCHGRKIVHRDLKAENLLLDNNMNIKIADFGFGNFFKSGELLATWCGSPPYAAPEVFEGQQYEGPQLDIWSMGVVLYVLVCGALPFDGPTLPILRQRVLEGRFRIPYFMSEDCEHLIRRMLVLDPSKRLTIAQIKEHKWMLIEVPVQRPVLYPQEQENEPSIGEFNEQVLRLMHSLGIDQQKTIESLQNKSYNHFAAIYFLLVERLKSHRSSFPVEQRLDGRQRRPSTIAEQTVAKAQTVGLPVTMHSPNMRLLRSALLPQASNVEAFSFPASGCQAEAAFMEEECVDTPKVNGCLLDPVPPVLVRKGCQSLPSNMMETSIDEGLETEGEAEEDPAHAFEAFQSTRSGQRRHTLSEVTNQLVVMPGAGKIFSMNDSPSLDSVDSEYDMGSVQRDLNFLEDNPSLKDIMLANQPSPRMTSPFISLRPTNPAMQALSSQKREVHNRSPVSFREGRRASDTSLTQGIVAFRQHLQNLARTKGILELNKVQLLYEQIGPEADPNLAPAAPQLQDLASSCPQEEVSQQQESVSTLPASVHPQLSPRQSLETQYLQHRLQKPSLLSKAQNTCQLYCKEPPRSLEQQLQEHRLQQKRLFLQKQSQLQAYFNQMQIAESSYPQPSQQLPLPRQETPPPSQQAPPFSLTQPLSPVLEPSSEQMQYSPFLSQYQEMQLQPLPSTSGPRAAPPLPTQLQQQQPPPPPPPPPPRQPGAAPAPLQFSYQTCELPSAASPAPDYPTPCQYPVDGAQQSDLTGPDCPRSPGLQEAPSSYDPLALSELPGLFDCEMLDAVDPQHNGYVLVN

By IC50 is commonly meant the midpoint of a concentration-inhibition curve. Read a high IC50 as weaker potency in that assay.

GST-tagged SIK1, sequence (P57059 whole entry): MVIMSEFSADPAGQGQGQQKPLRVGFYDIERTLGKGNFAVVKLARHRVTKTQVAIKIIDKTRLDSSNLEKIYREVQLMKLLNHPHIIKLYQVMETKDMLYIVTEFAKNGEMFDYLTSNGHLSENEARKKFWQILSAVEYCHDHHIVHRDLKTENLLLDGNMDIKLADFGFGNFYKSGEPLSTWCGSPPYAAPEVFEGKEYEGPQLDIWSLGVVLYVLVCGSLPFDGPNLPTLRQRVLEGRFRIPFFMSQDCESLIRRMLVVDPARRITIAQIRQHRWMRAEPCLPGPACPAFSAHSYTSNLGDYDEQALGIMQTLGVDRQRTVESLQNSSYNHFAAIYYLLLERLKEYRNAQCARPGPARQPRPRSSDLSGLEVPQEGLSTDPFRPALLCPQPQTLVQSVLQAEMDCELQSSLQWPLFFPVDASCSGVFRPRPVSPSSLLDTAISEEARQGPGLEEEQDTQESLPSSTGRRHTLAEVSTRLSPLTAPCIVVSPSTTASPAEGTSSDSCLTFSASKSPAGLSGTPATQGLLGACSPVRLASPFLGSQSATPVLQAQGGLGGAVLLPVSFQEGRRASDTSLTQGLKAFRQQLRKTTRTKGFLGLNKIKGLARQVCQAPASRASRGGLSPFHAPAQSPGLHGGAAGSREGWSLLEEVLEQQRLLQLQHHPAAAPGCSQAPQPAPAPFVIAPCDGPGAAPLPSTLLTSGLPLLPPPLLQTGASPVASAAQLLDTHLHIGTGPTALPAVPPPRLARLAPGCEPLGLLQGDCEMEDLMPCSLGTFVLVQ
GST-tagged SIK3, sequence (Q9Y2K2 whole entry): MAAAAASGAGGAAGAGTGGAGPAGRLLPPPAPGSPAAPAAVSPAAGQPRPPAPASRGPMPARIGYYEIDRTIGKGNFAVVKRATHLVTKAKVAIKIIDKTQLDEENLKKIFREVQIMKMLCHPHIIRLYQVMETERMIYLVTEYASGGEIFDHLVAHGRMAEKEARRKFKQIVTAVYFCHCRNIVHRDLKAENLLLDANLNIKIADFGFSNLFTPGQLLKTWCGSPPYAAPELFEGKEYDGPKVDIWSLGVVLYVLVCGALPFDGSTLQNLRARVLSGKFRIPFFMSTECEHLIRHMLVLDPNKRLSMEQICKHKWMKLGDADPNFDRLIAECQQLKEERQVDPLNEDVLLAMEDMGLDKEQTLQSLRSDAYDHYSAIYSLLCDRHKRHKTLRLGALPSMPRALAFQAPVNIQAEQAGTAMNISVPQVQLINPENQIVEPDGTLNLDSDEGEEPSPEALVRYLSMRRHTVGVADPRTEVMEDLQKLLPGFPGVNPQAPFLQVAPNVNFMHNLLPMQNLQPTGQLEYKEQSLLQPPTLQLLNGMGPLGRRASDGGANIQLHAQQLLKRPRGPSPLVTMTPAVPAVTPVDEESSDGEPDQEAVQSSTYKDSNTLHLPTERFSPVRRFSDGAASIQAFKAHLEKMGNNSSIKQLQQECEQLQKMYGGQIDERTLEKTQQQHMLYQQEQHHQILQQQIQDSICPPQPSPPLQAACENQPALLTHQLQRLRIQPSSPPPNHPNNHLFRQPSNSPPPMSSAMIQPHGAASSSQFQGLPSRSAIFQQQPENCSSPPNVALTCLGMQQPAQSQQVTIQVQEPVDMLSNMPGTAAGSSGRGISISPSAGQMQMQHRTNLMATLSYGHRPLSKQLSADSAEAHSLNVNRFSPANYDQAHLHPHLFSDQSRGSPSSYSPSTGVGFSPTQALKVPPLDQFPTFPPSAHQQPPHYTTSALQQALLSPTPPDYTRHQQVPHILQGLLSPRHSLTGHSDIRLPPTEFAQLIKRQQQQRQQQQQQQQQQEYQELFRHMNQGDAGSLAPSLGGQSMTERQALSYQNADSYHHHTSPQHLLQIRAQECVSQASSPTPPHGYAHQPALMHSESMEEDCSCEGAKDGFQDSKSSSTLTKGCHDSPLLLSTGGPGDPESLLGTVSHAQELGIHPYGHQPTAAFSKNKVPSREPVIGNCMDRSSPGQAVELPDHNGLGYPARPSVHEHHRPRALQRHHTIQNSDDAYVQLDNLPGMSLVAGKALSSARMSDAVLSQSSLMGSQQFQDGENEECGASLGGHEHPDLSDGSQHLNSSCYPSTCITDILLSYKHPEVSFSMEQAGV

Turning to `Cn1cc(-c2cc(C#N)c3c(-c4cc(OC(F)F)c5c(c4)C(C)(C)CNC5=O)n(C)nc3c2)cn1` [Example 162, 3-[8-(difluoromethoxy)-4,4-dimethyl-1-oxo-2,3-dihydroisoquinolin-6-yl]-2-methyl-6-(1-methylpyrazol-4-yl)indazol-4-carbonitrile], the 50% inhibitory concentration (IC50) is 8.1 nM on GST-tagged SIK1, 3.2 nM on GST-tagged SIK3 and 2.5 nM at GST-tagged SIK2.
The like results for `COc1cc(-c2c3c(C#N)cc(-c4cnn(C[C@H](C)O)c4)cc3nn2C)cc(OC(F)F)c1C(=O)N[C@@H]1CC1(F)F` [Example 94, 4-[4-cyano-6-[1-[(2S)-2-hydroxypropyl]pyrazol-4-yl]-2-methylindazol-3-yl]-N-[(1R)-2,2-difluorocyclopropyl]-2-(difluoromethoxy)-6-methoxybenzamide] were, in that order, 6.7 nM, 2.3 nM and 5 nM.
As for `CCOc1cc(-c2cnn(C)c2)cc2nn(C)c(-c3cc(OC)c4c(c3)[C@@H](C)CNC4=O)c12` (single isomer, unassigned) [Example 163], the values for the IC50 at GST-tagged SIK1, on GST-tagged SIK3 and against GST-tagged SIK2 were 5.1 nM, 11.6 nM and 1.4 nM, respectively.
With `COc1cc(-c2c3c(OC)cc(-c4cnn(C)c4)cc3nn2C)cc(OC(F)F)c1C(=O)N1CC(O)(C(F)F)C1` [Example 37, [2-(difluoromethoxy)-6-methoxy-4-[4-methoxy-2-methyl-6-(1-methylpyrazol-4-yl)indazol-3-yl]phenyl]-[3-(difluoromethyl)-3-hydroxyazetidin-1-yl]methanone], the values for the IC50 against GST-tagged SIK1, against GST-tagged SIK3 and against GST-tagged SIK2 were 7.9 nM, 12.9 nM and 8.3 nM, respectively.
The like results for `COc1cc(-c2cnn(C)c2)cc2nn(C)c(-c3cc(OC(F)F)c4c(c3)C(C)CNC4=O)c12` (stereo not drawn) [Example 161, 8-(difluoromethoxy)-6-[4-methoxy-2-methyl-6-(1-methylpyrazol-4-yl)indazol-3-yl]-4-methyl-3,4-dihydro-2H-isoquinolin-1-one] were, in that order, 5.6 nM, 10 nM and 1.3 nM.
The corresponding values for `COc1cc(-c2c3c(OC(C)C)cc(-c4cnn(C)c4)cc3nn2C)cc(OC(F)F)c1C(=O)N1CC(O)(C(F)(F)F)C1` [Example 43, [2-(difluoromethoxy)-6-methoxy-4-[2-methyl-6-(1-methylpyrazol-4-yl)-4-propan-2-yloxyindazol-3-yl]phenyl]-[3-hydroxy-3-(trifluoromethyl)azetidin-1-yl]methanone] are 2.4 nM, 20 nM and 19.7 nM.
For the molecule `Cn1cc(-c2cc(C#N)c3c(-c4ccc(C(=O)N[C@@H]5CC5(F)F)c(OC(F)F)c4)n(C)nc3c2)cn1` [Example 55, 4-[4-cyano-2-methyl-6-(1-methylpyrazol-4-yl)indazol-3-yl]-N-[(1R)-2,2-difluorocyclopropyl]-2-(difluoromethoxy)benzamide], the IC50 against GST-tagged SIK1 was 10.4 nM; against GST-tagged SIK3 it was 2.4 nM; on GST-tagged SIK2, 3.5 nM.
Regarding `COc1cc(-c2c3c(C#N)cc(/C=C/c4cnn(C)c4)cc3nn2C)cc(OC(F)F)c1C(=O)N[C@@H]1C[C@@H]1F` [Example 40, 4-[4-cyano-2-methyl-6-[(E)-2-(1-methylpyrazol-4-yl)ethenyl]indazol-3-yl]-2-(difluoromethoxy)-N-[(1R,2S)-2-fluorocyclopropyl]-6-methoxybenzamide], the figures for the concentration for half-maximal inhibition (IC50) at GST-tagged SIK1, at GST-tagged SIK3 and on GST-tagged SIK2 were 4.9 nM, 2.1 nM and 3.7 nM, respectively.
In the case of `CCn1cc(-c2cc(C#N)c3c(-c4cc(OC)c(C(=O)N[C@@H]5CC5(F)F)c(OC(F)F)c4)n(C)nc3c2)cn1` [Example 118, 4-[4-cyano-6-(1-ethylpyrazol-4-yl)-2-methylindazol-3-yl]-N-[(1R)-2,2-difluorocyclopropyl]-2-(difluoromethoxy)-6-methoxybenzamide], the IC50 is 5.3 nM on GST-tagged SIK1, 0.6 nM against GST-tagged SIK3 and 1 nM against GST-tagged SIK2.
As for `COc1cc(-c2c3c(C(F)F)cc(-c4cnn(C[C@H]5C[C@@H](O)C5)c4)cc3nn2C)cc(OC(F)F)c1C(=O)N[C@@H]1CC1(F)F` [Example 121, N-[(1R)-2,2-difluorocyclopropyl]-2-(difluoromethoxy)-4-[4-(difluoromethyl)-6-[1-[(cis-3-hydroxycyclobutyl)methyl]pyrazol-4-yl]-2-methylindazol-3-yl]-6-methoxybenzamide], the IC50 at GST-tagged SIK1 amounted to 9.5 nM; against GST-tagged SIK3 it was 1.1 nM; against GST-tagged SIK2 it was 4.8 nM.
Take `COc1cc(-n2cnc3cc(-c4cnn(C)c4)ccc32)cc(OC)c1C(=O)NCC(F)F` [Comparative Example 2, reference compound]: the half-maximal inhibitory concentration (IC50) came to 1000 nM against GST-tagged SIK1, 39.7 nM at GST-tagged SIK3 and 86.4 nM against GST-tagged SIK2.
The corresponding values for `COc1cc(-c2c3c(C#N)cc(-c4cnn(C)c4)cc3nn2C)cc(OC(F)F)c1C(=O)N1CC(O)(C(F)(F)F)C1` [Example 7, 3-[3-(difluoromethoxy)-4-[3-hydroxy-3-(trifluoromethyl)azetidin-1-carbonyl]-5-methoxyphenyl]-2-methyl-6-(1-methylpyrazol-4-yl)indazole-4-carbonitrile] are 17.1 nM, 12.4 nM and 16.2 nM.
The corresponding values for `COc1cc(-c2c3c(C#N)cc(-c4cnn(CC(=O)N5CC(F)(F)C5)c4)cc3nn2C)cc(OC(F)F)c1C(=O)NCC1(F)CC1` [Example 99, 4-[4-cyano-6-[1-[2-(3,3-difluoroazetidin-1-yl)-2-oxoethyl]pyrazol-4-yl]-2-methylindazol-3-yl]-2-(difluoromethoxy)-N-[(1-fluorocyclopropyl)methyl]-6-methoxybenzamide] are 19.2 nM, 4.9 nM and 5 nM.
The corresponding values for `COc1cc(-c2c3c(C#N)cc(-c4cc(C)ns4)cc3nn2C)cc(OC(F)F)c1C(=O)N[C@@H]1C[C@@H]1F` [Example 21, 4-[4-cyano-2-methyl-6-(3-methyl-1,2-thiazol-5-yl)indazol-3-yl]-2-(difluoromethoxy)-N-[(1R,2S)-2-fluorocyclopropyl]-6-methoxybenzamide] are 16.9 nM, 4 nM and 5.6 nM.
As to `COc1cc(-c2c3c(C(F)F)cc(-c4cnn(C[C@H](C)O)c4)cc3nn2C)cc(OC(F)F)c1C(=O)N[C@@H]1CC1(F)F` [Example 89, N-[(1R)-2,2-difluorocyclopropyl]-2-(difluoromethoxy)-4-[4-(difluoromethyl)-6-[1-[(2S)-2-hydroxypropyl]pyrazol-4-yl]-2-methylindazol-3-yl]-6-methoxybenzamide], the 50% inhibitory concentration (IC50) against GST-tagged SIK1 is 11 nM; at GST-tagged SIK3, 2.3 nM; at GST-tagged SIK2, 12 nM.
The like results for `COc1cc(-c2c3c(OCC(F)F)cc(-c4cnn(C)c4)cc3nn2C)cc(OC(F)F)c1C(N)=O` [Example 156, 4-[4-(2,2-difluoroethoxy)-2-methyl-6-(1-methylpyrazol-4-yl)indazol-3-yl]-2-(difluoromethoxy)-6-methoxybenzamide] were, in that order, 4.3 nM, 2.6 nM and 0.7 nM.
The like results for `CCn1cc(-c2cc(OC)c3c(-c4cc(OC(F)F)c5c(c4)[C@@H](C)CNC5=O)n(C)nc3c2)cn1` (single isomer, unassigned) [Example 180] were, in that order, 13.2 nM, 12.4 nM and 5.1 nM.
The corresponding values for `CCOc1cc(-c2cnn(C)c2)cc2nn(C)c(-c3cc(OC)c(C(=O)N4CC(O)(C(F)(F)F)C4)c(OC(F)F)c3)c12` [Example 42, [2-(difluoromethoxy)-4-[4-ethoxy-2-methyl-6-(1-methylpyrazol-4-yl)indazol-3-yl]-6-methoxyphenyl]-[3-hydroxy-3-(trifluoromethyl)azetidin-1-yl]methanone] are 2 nM, 10.5 nM and 12.8 nM.
Regarding `COc1cc(-c2c3c(C#N)cc(-c4cnn(C)c4)cc3nn2C)cc(OC(F)F)c1C(=O)N1CC(OC(F)F)C1` [Example 9, 3-[3-(difluoromethoxy)-4-[3-(difluoromethoxy)azetidine-1-carbonyl]-5-methoxyphenyl]-2-methyl-6-(1-methylpyrazol-4-yl)indazole-4-carbonitrile], the IC50 at GST-tagged SIK1 is 16.2 nM; on GST-tagged SIK3, 10 nM; on GST-tagged SIK2, 12.2 nM.
The corresponding values for `COc1cc(-c2cnn(C[C@H](C)O)c2)cc2nn(C)c(-c3cc(OC(F)F)c4c(c3)[C@@H](C)CNC4=O)c12` (single isomer, unassigned) [Example 175] are 7.5 nM, 7.2 nM and 2.9 nM.
As for `COc1cc(-c2c3c(C#N)cc(-c4cc[nH]n4)cc3nn2C)cc(OC(F)F)c1C(=O)N[C@@H]1CC1(F)F` [Example 149, 4-[4-cyano-2-methyl-6-(1H-pyrazol-3-yl)indazol-3-yl]-N-[(1R)-2,2-difluorocyclopropyl]-2-(difluoromethoxy)-6-methoxybenzamide], the IC50 at GST-tagged SIK1 amounted to 10.4 nM; at GST-tagged SIK3 it was 1.6 nM; against GST-tagged SIK2 it was 1.3 nM.
Consider `COc1cc(-c2c3c(C#N)cc(-c4cnn(CC5CC5)c4)cc3nn2C)cc2c1C(=O)NC[C@@H]2C` (single isomer, unassigned) [Example 170], for which the half-maximal inhibitory concentration (IC50) against GST-tagged SIK1 came to 8.5 nM; on GST-tagged SIK3, 4.3 nM; against GST-tagged SIK2, 1.7 nM.

Source of the values: patent publication US20260062387A1, “SALT-INDUCIBLE KINASE INHIBITOR COMPOUND AND PHARMACEUTICAL COMPOSITION INCLUDING THE SAME” (MITSUBISHI TANABE PHARMA CORPORATION, priority 2023, published 2026).
